According to patent publication US20090036509A1, “N-(Ortho-Phenyl)-1-Methyl -3-Trifluoromethlpyrazole-4-Carboxanilides and Their Use as Fungicides” (BASF Aktiengesellschaft, priority 2004, published 2009):

Tests used:
[1] = tested on: Puccinia recondita; experiment: Curative activity against brown rust of wheat caused by Puccinia recondita; assay type: in vivo; conditions: wheat seedlings sprayed 1 day after inoculation, rated after 7 days, untreated 90%; for Infection in % at 4 ppm using PUCCRT K1: Use Example 2
Description: The active compounds were prepared as a stock solution with 25 mg of active compound which was made up to 10 ml with a mixture of acetone and/or DMSO and the emulsifier Uniperol® EL (wetting agent having emulsifying and dispersing action based on ethoxylated alkyl phenols) in a volume ratio solvent/emulsifier of 99 to 1. The solution was then made up to 100 ml with water. This stock solution was diluted to the active compound concentrations stated below using the solvent/emulsifier/water mixture described. Curative Activity Against Brown Rust of Wheat Caused by Puccinia Recondita Leaves of potted wheat seedlings of the cultivar “Kanzler” were inoculated with a spore suspension of brown rust (Puccinia recondita). The pots were then placed in a chamber with high atmospheric humidity (90 to 95%) and at 20-22° C. for 24 hours. During this time, the spores germinated and the germ tubes penetrated into the leaf tissue. The next day, the infected plants were sprayed to runoff point with an aqueous suspension having the concentration of active compounds stated below. The suspension or emulsion was prepared as described above. After the spray coating had dried on, the test plants were cultivated in a greenhouse at temperatures between 20 and 22° C. and at 65 to 70% relative atmospheric humidity for 7 days. The extent of the rust fungus development on the leaves was then determined. Curative Activity Against Brown Rust of Wheat Caused by Puccinia Recondita Leaves of potted wheat seedlings of the cultivar “Kanzler” were inoculated with a spore suspension of brown rust (Puccinia recondita). The pots were then placed in a chamber with high atmospheric humidity (90 to 95%) and at 20-22° C. for 24 hours During this time, the spores germinated and the germ tubes penetrated into the leaf tissue. The next day, the infected plants were sprayed to runoff point with an aqueous suspension having the concentration of active compounds stated below. The suspension or emulsion was prepared as described above. After the spray coating had dried on, the test plants were cultivated in a greenhouse at temperatures between 20 and 22° C. and at 65 to 70% relative atmospheric humidity for 7 days. The extent of the rust fungus development on the leaves was then determined. Curative Activity Against Brown Rust of Wheat Caused by Puccinia Recondita Leaves of potted wheat seedlings of the cultivar “Kanzler” were inoculated with a spore suspension of brown rust (Puccinia recondita). The pots were then placed in a chamber with high atmospheric humidity (90 to 95%) and at 20-22° C. for 24 hours. During this time, the spores germinated and the germ tubes penetrated into the leaf tissue. The next day, the infected plants were sprayed to runoff point with an aqueous suspension having the concentration of active compounds stated below. The suspension or emulsion was prepared as described above. After the spray coating had dried on, the test plants were cultivated in a greenhouse at temperatures between 20 and 22° C. and at 65 to 70% relative atmospheric humidity for 7 days. The extent of the rust fungus development on the leaves was then determined.

[2] = tested on: Botrytis cinerea; experiment: Activity against gray mold on bell pepper leaves caused by Botrytis cinerea, protective application; assay type: in vivo; conditions: visual rating after 5 days, untreated 90%
Description: The active compounds were prepared as a stock solution with 25 mg of active compound which was made up to 10 ml with a mixture of acetone and/or DMSO and the emulsifier Uniperol® EL (wetting agent having emulsifying and dispersing action based on ethoxylated alkyl phenols) in a volume ratio solvent/emulsifier of 99 to 1. The solution was then made up to 100 ml with water. This stock solution was diluted to the active compound concentrations stated below using the solvent/emulsifier/water mixture described. Activity Against Gray Mold on Bell Pepper Leaves Caused by Botrytis Cinerea Protective Application Bell pepper seedlings of the cultivar “Neusiedler Ideal Elite” were, after 2-3 leaves were well developed, sprayed to runoff point with an aqueous suspension having the concentration of active compounds stated below. The next day, the treated plants were inoculated with a spore suspension of Botrytis cinerea which contained 1.7×10^6 spores/ml in a 2% strength aqueous biomalt solution. The test plants were then placed in a dark climatized chamber at 22-24° C. and high atmospheric humidity. After 5 days, the extent of the fungal infection on the leaves could be determined visually in %. […]

[3] = Use Example 1, bell pepper seedlings sprayed 1 day before inoculation
[4] = Use Example 4, bell pepper seedlings sprayed 1 day before inoculation

Structure (SMILES)	Infection in % at 4 ppm using PUCCRT K1 [1] [%]	Infection in % at 4 ppm using BOTRCI P1 [2, 3] [%]	Infection in % at 250 ppm using PUCCRT K1 ([1]; Use Example 5) [%]	Infection in % at 4 ppm using BOTRCI P1 [2, 4] [%]	Infection in % at 250 ppm using PUCCRT K1 ([1]; Use Example 3) [%]
Cn1cc(C(=O)Nc2ccccc2-c2ccc(F)cc2)c(C(F)(F)F)n1 [Comp. 37of EP-A05 89 301]	30	70	–	–	–
Cc1ccccc1-c1ccccc1NC(=O)c1cn(C)nc1C(F)(F)F [Comp. 41of EP-A05 89 301]	–	–	60	25	–
Cc1cc(Cl)ccc1-c1ccccc1NC(=O)c1cn(C)nc1C(F)(F)F [67.8]	–	–	0	0	–
Cn1cc(C(=O)Nc2ccccc2-c2ccc(F)c(F)c2)c(C(F)(F)F)n1 [Comp. 67.4]	5	40	–	–	–
COc1ccc(-c2ccccc2NC(=O)c2cn(C)nc2C(F)(F)F)c(F)c1 [Comp. 67.14]	–	–	–	–	7
COc1ccc(-c2ccccc2NC(=O)c2cn(C)nc2C(F)(F)F)cc1 [Comp. 38of EP-A05 89 301]	–	–	–	–	60
